In patent US20250099434A1, “METHODS OF TREATING AMYLOID RELATED BRAIN DISORDERS USING NOVEL COMPOUNDS AND ANTIBODIES” (T3D Therapeutics, Inc., priority 2022, published 2025):

Legend:
[1] = test system: patients with mild-to-moderate Alzheimer's disease (AD); experiment: BOLD fMRI (task-free fMRI) clinical study, baseline vs end of treatment; assay type: in vivo, human
Procedure: The majority were non-Hispanic and of white origin.
T3D Therapeutics completed an exploratory analysis of the Phase 2A non-placebo-controlled feasibility study to assess the therapeutic effects of T3D959 in patients with mild-to-moderate Alzheimer's disease (AD) via task-free functional magnetic resonance imaging (tf-fMRI). A total of 34 subjects participated and were split into 4 groups that took different amounts of T3D959 over the course of the study: 3 mg, 10 mg, 30 mg, and 90 mg. A baseline tf-fMRI scan was obtained prior to treatment and another two weeks after. Sixteen tf-fMRI metrics were calculated at each time point and summarized for each patient group to assess the therapeutic effect of T3D959.
The T3D clinical trial investigated the following metrics: • 1. Goodness of Fit of the subject's default mode network regions compared to those of an elderly control group. • 2. The correlation strength between the hippocampus and precuneus. • 3. The global efficiency calculated from 11 pre-defined default mode network regions. • 4. The global efficiency calculated from 90 pre-defined cerebral regions based on the automated anatomical labeling atlas. • 5. The amplitude of low frequency fluctuations (ALFF) and […] of low frequency fluctuations (fALFF) from the right posterior cingulate cortex (PCC) and precuneus (PreC) in the low frequency oscillations (LFO) range (0.01-0.08 Hz). • 6. The ALFF and fALFF from the left PCC and PreC in the LFO range. • 7. The regional homogeneity (ReHo) in the right PCC and PreC. • 8. The ReHo in the left PCC and PreC. • 9. […] The ALFF and fALFF from the left IPL in the LFO range. • 11. The ReHo in the right IPL • 12. The ReHo in the left IPL.

[2] = biological target: T1, human PPARα (Homo sapiens, UniProt Q07869); experiment: Human PPAR activation, transient transfection in CV-1 cells (alpha subtype); assay type: cell-based
T1 construct: expressed in transfected cells; host or cells: CV-1 cells
T1 sequence (Q07869 1-468): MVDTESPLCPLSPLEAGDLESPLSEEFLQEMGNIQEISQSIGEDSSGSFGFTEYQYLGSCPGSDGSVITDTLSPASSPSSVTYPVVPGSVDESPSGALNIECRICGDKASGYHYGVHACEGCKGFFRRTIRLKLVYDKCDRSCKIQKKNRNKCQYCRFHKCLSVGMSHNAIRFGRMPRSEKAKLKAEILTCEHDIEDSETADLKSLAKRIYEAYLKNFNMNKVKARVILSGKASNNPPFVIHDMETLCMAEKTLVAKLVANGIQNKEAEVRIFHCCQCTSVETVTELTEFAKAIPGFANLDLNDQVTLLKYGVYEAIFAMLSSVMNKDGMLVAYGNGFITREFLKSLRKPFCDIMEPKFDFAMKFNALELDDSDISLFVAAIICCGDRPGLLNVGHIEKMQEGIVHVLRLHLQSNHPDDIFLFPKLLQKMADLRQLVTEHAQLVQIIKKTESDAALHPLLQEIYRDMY
Source text: PPAR receptor agonist activity may be determined by conventional screening methods known to the skilled in the art. For example, methods described in U.S. Patent Application Publication No. 2007/0054907, 2008/0262047 and U.S. Pat. No. 7,314,879, which are incorporated by reference in their entireties.
The table summarize the results of studies performed in transfected CV-1 cells with three different lots of Compound of Example 11. […].

CCc1oc(-c2ccc(OC)cc2)nc1CCOc1ccc2c(c1)CC[C@H]2CC(=O)[O-].[Na+] [Example 11, Sodium (S)-2-(5-(2-(5-ethyl-2-(4-methoxyphenyl)oxazol-4-yl)ethoxy)-2,3-dihydro-1H-inden-1-yl)acetate]
ALFF-IIPL, Change from Baseline EOT, Mean ([1]; 3 mg): −0.0635
ALFF-IIPL, Change from Baseline EOT, Median ([1]; 3 mg): −0.0393
ALFF-rIPL, Change from Baseline EOT, Mean ([1]; 3 mg): −0.0493
ALFF-rIPL, Change from Baseline EOT, Median ([1]; 3 mg): −0.0587
ReHo-IIPL, Change from Baseline EOT, Mean ([1]; 3 mg): −0.0694
ReHo-IIPL, Change from Baseline EOT, Median ([1]; 3 mg): −0.0822
ReHo-IPPC-PreC, Change from Baseline EOT, Mean ([1]; 3 mg): −0.0665
ReHo-IPPC-PreC, Change from Baseline EOT, Median ([1]; 3 mg): −0.0428
ReHo-rIPL, Change from Baseline EOT, Mean ([1]; 3 mg): −0.0694
ReHo-rIPL, Change from Baseline EOT, Median ([1]; 3 mg): −0.0822
ReHo-rPPC-Prec, Change from Baseline EOT, Mean ([1]; 3 mg): −0.0390
ReHo-rPPC-Prec, Change from Baseline EOT, Median ([1]; 3 mg): −0.0081
fALFF-IIPL, Change from Baseline EOT, Mean ([1]; 3 mg): −0.0296
fALFF-IIPL, Change from Baseline EOT, Median ([1]; 3 mg): −0.0311
fALFF-IPPC-PreC, Change from Baseline EOT, Mean ([1]; 3 mg): 0.0121
fALFF-IPPC-PreC, Change from Baseline EOT, Median ([1]; 3 mg): 0.0019
fALFF-rIPL, Change from Baseline EOT, Mean ([1]; 3 mg): −0.0342
fALFF-rIPL, Change from Baseline EOT, Median ([1]; 3 mg): −0.0327
fALFF-rPPC-PreC, Change from Baseline EOT, Mean ([1]; 3 mg): −0.0080
fALFF-rPPC-PreC, Change from Baseline EOT, Median ([1]; 3 mg): −0.0229
ALFF-IIPL, Change from Baseline EOT, Mean ([1]; 10 mg): 0.0104
ALFF-IIPL, Change from Baseline EOT, Median ([1]; 10 mg): 0.0273
ALFF-rIPL, Change from Baseline EOT, Mean ([1]; 10 mg): −0.0276
ALFF-rIPL, Change from Baseline EOT, Median ([1]; 10 mg): −0.0278
ReHo-IIPL, Change from Baseline EOT, Mean ([1]; 10 mg): 0.0147
ReHo-IIPL, Change from Baseline EOT, Median ([1]; 10 mg): −0.0201
ReHo-IPPC-PreC, Change from Baseline EOT, Mean ([1]; 10 mg): 0.0237
ReHo-IPPC-PreC, Change from Baseline EOT, Median ([1]; 10 mg): 0.0523
ReHo-rIPL, Change from Baseline EOT, Mean ([1]; 10 mg): 0.0147
ReHo-rIPL, Change from Baseline EOT, Median ([1]; 10 mg): −0.0201
ReHo-rPPC-Prec, Change from Baseline EOT, Mean ([1]; 10 mg): −0.0663
ReHo-rPPC-Prec, Change from Baseline EOT, Median ([1]; 10 mg): 0.0153
fALFF-IIPL, Change from Baseline EOT, Mean ([1]; 10 mg): 0.0164
fALFF-IIPL, Change from Baseline EOT, Median ([1]; 10 mg): 0.0097
fALFF-IPPC-PreC, Change from Baseline EOT, Mean ([1]; 10 mg): 0.0068
fALFF-IPPC-PreC, Change from Baseline EOT, Median ([1]; 10 mg): −0.0068
fALFF-rIPL, Change from Baseline EOT, Mean ([1]; 10 mg): 0.0061
fALFF-rIPL, Change from Baseline EOT, Median ([1]; 10 mg): 0.0096
fALFF-rPPC-PreC, Change from Baseline EOT, Mean ([1]; 10 mg): 0.0084
fALFF-rPPC-PreC, Change from Baseline EOT, Median ([1]; 10 mg): −0.0028
ALFF-IIPL, Change from Baseline EOT, Mean ([1]; 30 mg): −0.0102
ALFF-IIPL, Change from Baseline EOT, Median ([1]; 30 mg): −0.0031
ALFF-rIPL, Change from Baseline EOT, Mean ([1]; 30 mg): 0.0346
ALFF-rIPL, Change from Baseline EOT, Median ([1]; 30 mg): 0.0332
ReHo-IIPL, Change from Baseline EOT, Mean ([1]; 30 mg): −0.0249
ReHo-IIPL, Change from Baseline EOT, Median ([1]; 30 mg): −0.0135
ReHo-IPPC-PreC, Change from Baseline EOT, Mean ([1]; 30 mg): −0.0369
ReHo-IPPC-PreC, Change from Baseline EOT, Median ([1]; 30 mg): −0.0398
ReHo-rIPL, Change from Baseline EOT, Mean ([1]; 30 mg): −0.0249
ReHo-rIPL, Change from Baseline EOT, Median ([1]; 30 mg): −0.0135
ReHo-rPPC-Prec, Change from Baseline EOT, Mean ([1]; 30 mg): −0.0895
ReHo-rPPC-Prec, Change from Baseline EOT, Median ([1]; 30 mg): −0.1176
fALFF-IIPL, Change from Baseline EOT, Mean ([1]; 30 mg): −0.0107
fALFF-IIPL, Change from Baseline EOT, Median ([1]; 30 mg): −0.0034
fALFF-IPPC-PreC, Change from Baseline EOT, Mean ([1]; 30 mg): −0.0132
fALFF-IPPC-PreC, Change from Baseline EOT, Median ([1]; 30 mg): −0.0141
fALFF-rIPL, Change from Baseline EOT, Mean ([1]; 30 mg): 0.0023
fALFF-rIPL, Change from Baseline EOT, Median ([1]; 30 mg): 0.0001
fALFF-rPPC-PreC, Change from Baseline EOT, Mean ([1]; 30 mg): −0.0007
fALFF-rPPC-PreC, Change from Baseline EOT, Median ([1]; 30 mg): −0.0133
ALFF-IIPL, Change from Baseline EOT, Mean ([1]; 90 mg): −0.0401
ALFF-IIPL, Change from Baseline EOT, Median ([1]; 90 mg): −0.0560
ALFF-rIPL, Change from Baseline EOT, Mean ([1]; 90 mg): −0.1089
ALFF-rIPL, Change from Baseline EOT, Median ([1]; 90 mg): −0.0671
ReHo-IIPL, Change from Baseline EOT, Mean ([1]; 90 mg): −0.0062
ReHo-IIPL, Change from Baseline EOT, Median ([1]; 90 mg): −0.0121
ReHo-IPPC-PreC, Change from Baseline EOT, Mean ([1]; 90 mg): 0.0194
ReHo-IPPC-PreC, Change from Baseline EOT, Median ([1]; 90 mg): 0.0566
ReHo-rIPL, Change from Baseline EOT, Mean ([1]; 90 mg): −0.0062
ReHo-rIPL, Change from Baseline EOT, Median ([1]; 90 mg): −0.0121
ReHo-rPPC-Prec, Change from Baseline EOT, Mean ([1]; 90 mg): −0.0041
ReHo-rPPC-Prec, Change from Baseline EOT, Median ([1]; 90 mg): 0.0177
fALFF-IIPL, Change from Baseline EOT, Mean ([1]; 90 mg): −0.0350
fALFF-IIPL, Change from Baseline EOT, Median ([1]; 90 mg): −0.0211
fALFF-IPPC-PreC, Change from Baseline EOT, Mean ([1]; 90 mg): −0.0167
fALFF-IPPC-PreC, Change from Baseline EOT, Median ([1]; 90 mg): −0.0166
fALFF-rIPL, Change from Baseline EOT, Mean ([1]; 90 mg): −0.0395
fALFF-rIPL, Change from Baseline EOT, Median ([1]; 90 mg): −0.0313
fALFF-rPPC-PreC, Change from Baseline EOT, Mean ([1]; 90 mg): −0.0118
fALFF-rPPC-PreC, Change from Baseline EOT, Median ([1]; 90 mg): 0.0039
Peak effect PPARα [2]: 1.87
maximal response, human alpha subtype [2]: significantly reduced maximal response
